Measured values reported in the supplement of paper PMC10307832.

How the values were obtained:
Experiment in all cases: relative viability (nuclei count vs DMSO), 5 days (fraction); higher = more cells survive
[1] = compound: C[C@@]1(C(=O)Nc2ccc(F)nc2)CCCN1c1nc(Nc2cc(C3CC3)n[nH]2)c2cccn2n1 + Nc1nc2[nH]cc(CCc3ccc(C(=O)N[C@@H](CCC(=O)O)C(=O)O)cc3)c2c(=O)[nH]1 [Pemetrexed] (partner 0.2 µM)
Method in brief: (§1)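 For relative viability, nuclei counts in treated wells were divided by those in vehicle wells. Lung cancer cell lines had been pin-tool dosed in 1536-well plates the day after seeding and cultured for 5 days, then fixed and stained in one step (final 0.05% Triton X-100, 1% formaldehyde, 1 ug/ml Hoechst) and imaged at 4×. Doses were one drug alone or a fixed anchor-drug dose plus five library-drug doses (not always all listed) in √10 steps, and values are duplicate-plate medians.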

Motesanib + Alpelisib = compound: CC1(C)CNc2cc(NC(=O)c3cccnc3NCc3ccncc3)ccc21 [Motesanib] + Cc1nc(NC(=O)N2CCC[C@H]2C(N)=O)sc1-c1ccnc(C(C)(C)C(F)(F)F)c1 [Alpelisib] (partner 2 µM)
Method in brief: as §1

Motesanib = compound: CC1(C)CNc2cc(NC(=O)c3cccnc3NCc3ccncc3)ccc21 [Motesanib]
Method in brief: (§2)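 Viability here means nuclei in treated wells divided by nuclei in vehicle wells, reported as the median across plates. Only plates with control CV below 25% and at least one doubling passed. Lung cancer cell lines in 1536-well plates were exposed to five √10-spaced library-drug doses for 5 days and counted from 4× Hoechst images in MetaXpress.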

[2] = compound: C[C@@]1(C(=O)Nc2ccc(F)nc2)CCCN1c1nc(Nc2cc(C3CC3)n[nH]2)c2cccn2n1
Method in brief: as §2

Cell Line	relative viability ([1]; first compound 0.04 µM)	relative viability ([1]; first compound 0.1265 µM)	relative viability ([1]; first compound 0.4 µM)	relative viability ([1]; first compound 1.265 µM)	relative viability (Motesanib + Alpelisib; first compound 0.01 µM)	relative viability (Motesanib + Alpelisib; first compound 0.03162 µM)	relative viability (Motesanib + Alpelisib; first compound 0.1 µM)	relative viability (Motesanib + Alpelisib; first compound 0.3162 µM)	relative viability (Motesanib + Alpelisib; first compound 1 µM)	relative viability (Motesanib; 0.01 µM)	relative viability (Motesanib; 0.03162 µM)	relative viability (Motesanib; 0.1 µM)	relative viability (Motesanib; 0.3162 µM)	relative viability (Motesanib; 1 µM)	relative viability ([2]; 0.04 µM)	relative viability ([2]; 0.1265 µM)	relative viability ([2]; 0.4 µM)	relative viability ([2]; 1.265 µM)
LOU-NH91	0.394	0.409	0.353	0.346	0.746	0.759	0.708	0.707	0.802	0.94	0.982	1.12	0.993	0.995	0.94	0.94	0.894	0.841
LU99A	0.187	0.165	0.183	0.165	0.465	0.555	0.511	0.488	0.559	0.911	1.03	0.905	1.02	0.98	0.72	0.645	0.6	0.381
LXF-289	0.9	0.921	0.804	0.859	0.983	1.05	1.06	1.05	1.04	0.991	0.999	1.02	1.15	1.03	1.03	0.978	0.997	1.03
NCI-H23	0.506	0.437	0.399	0.312	0.798	0.481		0.639	0.603	1.02	0.915	0.758	1.08	1.04	0.788	0.501	0.523	0.553
NCI-H322M	0.63	0.525	0.52	0.537	0.713	0.737	0.837	0.751	0.778	1.04	0.993	0.988	0.946	0.954	0.853	0.602	0.644	0.728
NCI-H358	0.15	0.155	0.117	0.137	0.949	0.938	0.88	0.839	1.02	0.973	0.948	0.959	1.16	1.2	0.752	0.46	0.237	0.326
NCI-H441	0.246	0.261	0.243	0.267	0.699	0.998	1.03	0.636	0.847	1.02	1.06	0.981	1.08	1.16	0.719	0.549	0.664	0.703
NCI-H460	0.0607	0.0684	0.0535	0.0527	0.567	0.495	0.484	0.424	0.478	0.999	0.974	0.981	1.02	1	0.982	1.01	1.01	0.953
NCI-H520	0.661	0.529	0.581	0.615	0.864	0.899	0.879	0.871	0.768	0.931	1.03	0.971	1.05	0.906	0.977	0.915	0.953	0.99
NCI-H596	0.494	0.497	0.431	0.487	0.489	0.417	0.496	0.542	0.498	1.2	0.921	0.928	0.908	0.964	1.02	0.846	0.902	0.939
NCI-H647	0.174	0.163	0.174	0.123	1.02	1.21	1.1	1.33	1.09	0.827	1	0.93	1.06	0.988	1.05	0.869	0.848	0.86
NCI-H650	0.837	0.706	0.745	0.692	0.925	0.85	1.14	1.09	1.08	0.976	1.04	0.992	1.07	0.907	0.841	0.649	0.784	0.585
NCI-H661	0.918	0.909	0.796	0.899	0.356	0.608	0.683	0.641	0.882	0.972	1.02	0.985	1.04	0.964	1.04	1.04	1.01	0.875
NCI-H838	0.234	0.233	0.216	0.215	0.992	1.02	1.08	0.982	1.03	1.04	0.962	0.985	1.02	0.932	0.942	0.76	0.693	0.736
NCI-H1355	1.01	0.957	0.826	0.953	0.825	0.831	0.937	0.933	0.828	1.03	1.02	0.978	1.04	1.01	0.96	0.794	0.797	0.818
NCI-H1395	0.89	0.411	0.879	0.868	1.04	0.922	0.992	0.998	1.02	0.814	0.84	0.95	0.866	0.924	0.916	0.825	0.922	0.755
NCI-H1437	0.246	0.242	0.242	0.284	0.983	0.979	0.901	1.02	1.07	0.964	0.958	0.998	1	0.957	1.04	0.918	0.679	0.714
NCI-H1563	0.92	0.708	0.73	0.662	0.985	0.92	0.946	0.879	0.95	1.04	0.973	1.09	0.953	0.994	1.04	0.918	0.805	0.934
NCI-H1651	0.62	0.508	0.517	0.447	0.987	0.909	0.823	0.883	1.06	1.02	0.912	0.946	0.962	0.947	0.956	0.883	0.82	0.923
NCI-H1666	0.797	0.735	0.714	0.683	0.799	0.977	0.949	1.02	1.16	1.04	0.965	0.976	0.99	1.08	0.932	0.83	0.773	0.753
NCI-H1734	0.418	0.338	0.404	0.381	0.711	0.608	0.719	0.72	0.746	0.968	1.01	0.948	1.07	1.01	0.855	0.721	0.651	0.615
NCI-H1755	0.444	0.408	0.39	0.377	0.879	0.905	1.02	1.03	0.909	1.01	0.989	1.03	1.07	1.03	1.02	0.875	0.92	0.958
NCI-H1792	0.641	0.333	0.303	0.27	0.702	0.63	0.78	0.757	0.685	0.742	0.805	0.908	0.918	1.12	0.602	0.423	0.383	0.295
NCI-H1793	0.644	0.825	0.634	0.508	0.795	0.673	0.75	0.761	0.676	0.865	1.02	0.867	0.963	0.967	0.974	0.738	0.67	1.04
NCI-H1915	0.52	0.46	0.48	0.529	1.02	1.02	1.03	1.02	1.06	0.978	0.988	0.908	1.05	1.04	1	1.06	0.982	0.982
NCI-H1944	0.605	0.554	0.497	0.544	0.785	0.853	0.89	0.885	0.855	0.946	0.961	0.914	1.05	0.989	0.768	0.75	0.63	0.663
NCI-H1975	0.302	0.298	0.274	0.268	0.681	0.588	0.615	0.61	0.675	0.876	0.914	0.996	0.995	0.98	0.943	0.981	0.649	0.754
NCI-H1993	0.496	0.488	0.462	0.474	0.656	0.659	0.765	0.697	0.642	0.993	0.941	0.977	0.963	1.06	0.732	0.696	0.649	0.686
NCI-H2009	1.07	1.01	1.01	1.03	1.15	1.18	1.17	1.19	1.15	1.02	0.993	1.08	1.02	0.964	1.06	1.03	0.936	1
